One experiment concerns M. tuberculosis. Nature of the experiment: Bactec growth index assay of M. tuberculosis with rBPI23 and antibiotics (Example 5). The format is cell-based.
Experiment [1] relates to M. tuberculosis (strain H37Ra) induced production of TNF by monocytes/macrophages. Format: cell-based, human. The following applies: second test, 4 μg/ml.

Where two headings read alike, the source gives them in different places.

In the case of `NNC(=O)c1ccncc1` [INH, isoniazid], the growth index entry with M. tuberculosis (INH alone, no BPI protein product, 0.006-0.05 μg/ml) was “increases generally began earlier and rose more steeply at lower doses than at higher doses”. Regarding `CO[C@H]1/C=C/O[C@@]2(C)Oc3c(C)c(O)c4c(O)c(c(/C=N/N5CCN(C)CC5)c(O)c4c3C2=O)NC(=O)/C(C)=C\C=C\[C@H](C)[C@H](O)[C@@H](C)[C@@H](O)[C@@H](C)[C@H](OC(C)=O)[C@@H]1C` [RMP, rifampin], in the experiment with M. tuberculosis (RMP 0.5 and 1.0 μg/ml, entire test period (day 2 to 18)), the growth index entry was “essentially no increase in growth index”.

B1: BPI holoprotein: recombinant human bactericidal/permeability-increasing holoprotein, SEQ ID NOS:1 and 2 (protein)
chain: MRENMARGPCNAPRWVSLMVLVAIGTAVTAAVNPGVVVRISQKGLDYASQQGTAALQKELKRIKIPDYSDSFKIKHLGKGHYSFYSMDIREFQLPSSQISMVPNVGLKFSISNANIKISGKWKAQKRFLKMSGNFDLSIEGMSISADLKLGSNPTSGKPTITCSSCSSHINSVHVHISKSKVGWLIQLFHKKIESALRNKMNSQVCEKVTNSVSSKLQPYFQTLPVMTKIDSVAGINYGLVAPPATTAETLDVQMKGEFYSENHHNPPPFAPPVMEFPAAHDRMVYLGLSDYFFNTAGLVYQEAGVLKMTLRDDMIPKESKFRLTTKFFGTFLPEVAKKFPNMKIQIHVSASTPPHLSVQPTGLTFYPAVDVQAFAVLPNSSLASLFLIGMHTTGSMEVSAESNRLVGELKLDRLLLELKHSNIGPFPVELLQDIMNYIVPILVLPRVNEKLQKGFPLPTPARVQLYNVVLQPHQNFLLFGADVVYK
Take B1: the “inhibition of TNF production” value is listed as “Lesser degrees of inhibition” in experiment [1] (3×10^5 to 1×10^7 organisms) and “no inhibition at all” in experiment [1] (highest concentration of organisms, one duplicate test).

The values above are taken from patent publication US6620785B2, “Treatment of Mycobacterial diseases by administration of bactericidal/permeability-increasing protein products” (Xoma Corporation, priority 1993, dated 2003).
